Measurements from US20160228489A1, “PHARMACEUTICAL COMPOSITION FOR THE PREVENTION AND THE TREATMENT OF DEGENERATIVE SKIN DISORDERS ESPECIALLY CAUSED BY IONIZING RADIATIONS” (SOLOSALE S.R.L., priority 2011, published 2016).

Test system: Cultured skin fibroblasts exposed to UV rays
Experiment: cultured skin fibroblasts exposed to UV rays: intracellular GSH and cell survival
Type: cell-based
Details: for cell survival, % (24 h after end of irradiation) / intracellular GSH, % compared to controls (3 h after incubation): fibroblasts exposed to UV rays, 3 h incubation with formulation containing 100 μM S-acyl-glutathione; for cell survival, % (24 h after end of irradiation): UV without compound 10, unexposed control 100; for intracellular GSH, % compared to controls (3 h after incubation): UV without compound 30, unexposed control 100; for effectiveness for increase of intracellular GSH and of cell survival following exposure to ultraviolet radiation (in words): similar experiments, same concentrations

Molecule	cell survival, % (24 h after end of irradiation) [%]	intracellular GSH, % compared to controls (3 h after incubation) [%]	effectiveness for increase of intracellular GSH and of cell survival following exposure to ultraviolet radiation (in words)
CCCCC/C=C\C/C=C\CCCCCCCC(=O)SC[C@H](NC(=O)CC[C@H](N)C(=O)O)C(=O)NCC(=O)O [linoleyl-S-glutathione]	63	110	
Oc1ccc(C=Cc2cc(O)cc(O)c2)cc1 [resveratrol, reference compound]			did not produce significant effects
CC/C=C\C/C=C\C/C=C\CCCCCCCC(=O)N[C@@H](CCC(=O)N[C@@H](CSC(=O)CCCCCCC/C=C\C/C=C\C/C=C\CC)C(=O)NCC(=O)O)C(=O)O [S,N-di-linolenoyl-S-glutathione]	98	113	
CC/C=C\C/C=C\C/C=C\C/C=C\C/C=C\C/C=C\CCC(=O)O [docosahexaenoic acid]			results similar to those obtained with linolenic and arachidonic acids
CC/C=C\C/C=C\C/C=C\C/C=C\C/C=C\CCCC(=O)SC[C@H](NC(=O)CC[C@H](N)C(=O)O)C(=O)NCC(=O)O [eicosapentaenoic acid, eicosapentaenoyl-S-glutathione]			results similar to those obtained with linolenic and arachidonic acids
vitamin E [reference compound]			did not produce significant effects
O=C1O[C@H]([C@@H](O)CO)C(O)=C1O [ascorbic acid, reference compound]			did not produce significant effects
CCCCCCCC/C=C\CCCCCCCC(=O)SC[C@H](NC(=O)CC[C@H](N)C(=O)O)C(=O)NCC(=O)O [oleyl-S-glutathione]	35	85	
Cc1c(C)c2c(c(C)c1O)CCC(C)(C(=O)O)O2 (stereo not shown) [Trolox®, reference compound]			did not produce significant effects
CC/C=C\C/C=C\C/C=C\CCCCCCCC(=O)SCC(NC(=O)CCC(N)C(=O)O)C(=O)NCC(=O)O (stereo not shown) [linolenoyl-S-glutathione]	97	115	
CCCCC/C=C\C/C=C\C/C=C\C/C=C\CCCC(=O)SC[C@H](NC(=O)CC[C@H](N)C(=O)O)C(=O)NCC(=O)O [arachidonoyl-S-glutathione]	100	115	
